Experimental data from patent US5478929A, “Bioconversion products of 27-hydroxy avermectin” (Merck & Co., Inc., priority 1994, dated 1995).

What was measured:
Format in all cases: in vivo
[1] = tested on: Trichostrongylus colubriformis; assay: Anthelmintic activity against Trichostrongylus colubriformis; details: Table 4
Haemonchus contortus = assay: Anthelmintic activity against Haemonchus contortus; details: for Activity profile, Haemonchus Contortus: Table 4
[2] = tested on: Trichostrongylus sigmodontis; assay: Anthelmintic activity against Trichostrongylus sigmodontis (large bowel worm); details: for Activity profile, Trichostrongulus sigmodontis: Table 4; for Anthelmintic activity, Trichostrongylus sigmodontis: Table 2; on Anthelmintic activity, Trichostrongylus sigmodontis: key: A*: highly active; M: moderately active; I: inactive
Text: The anthelmintic activity of the instant compound may be determined by orally administering via the feed, a sample of the individual compound, a mixture of such compound, a concentrated extract, and the like to a mouse which had been infected 3 days earlier with a gastrointestinal parasite. At 11, 12 and 13 days after the initiation of the medication, the feces of the mouse are examined for eggs, and on the next day the mouse is sacrificed and the number of worms present in the proximal portion of the small intestine are determined. An active compound is observed when there is a significant reduction of egg and worm counts when compared to infected, unmedicated controls.

Lucilla larva = assay: Insecticidal activity, Lucilla larva; details: for Insecticidal activity, Lucilla larva 48 hrs: listed as 27-OH ivermectins Isomer B; on all read-outs here: key: A*: highly active; M: moderately active; I: inactive

Molecule | Activity profile, Trichostrongulus colubriformis ([1]; 0.0625 mg/kg) | Activity profile, Trichostrongulus colubriformis ([1]; 0.125 mg/kg) | Activity profile, Trichostrongulus colubriformis ([1]; 0.25 mg/kg) | Activity profile, Haemonchus Contortus (Haemonchus contortus; 0.0625 mg/kg) | Activity profile, Haemonchus Contortus (Haemonchus contortus; 0.125 mg/kg) | Activity profile, Haemonchus Contortus (Haemonchus contortus; 0.25 mg/kg) | Activity profile, Trichostrongulus sigmodontis ([2]; 0.0625 mg/kg) | Activity profile, Trichostrongulus sigmodontis ([2]; 0.125 mg/kg) | Activity profile, Trichostrongulus sigmodontis ([2]; 0.25 mg/kg) | Activity profile, Trichostrongulus colubriformis ([1]; 1.00 mg/kg) | Activity profile, Haemonchus Contortus (Haemonchus contortus; 1.00 mg/kg) | Activity profile, Trichostrongulus sigmodontis ([2]; 1.00 mg/kg) | Anthelmintic activity, Trichostrongylus sigmodontis ([2]; 0.0625 mg/kg) | Insecticidal activity, Lucilla larva 24 hrs (Lucilla larva; 0.5 ppm) | Insecticidal activity, Lucilla larva 24 hrs (Lucilla larva; 1 ppm) | Anthelmintic activity, Haemonchus contortus (Haemonchus contortus; Table 2, 0.0625 mg/kg, listed as 27-OH ivermectins Isomer B) | Anthelmintic activity, Trichostrongylus sigmodontis ([2]; 0.125 mg/kg, listed as 27-OH ivermectins Isomer B) | Anthelmintic activity, Trichostrongylus sigmodontis ([2]; 0.25 mg/kg, listed as 27-OH ivermectins Isomer B) | Insecticidal activity, Lucilla larva 48 hrs (Lucilla larva; 0.5 ppm) | Insecticidal activity, Lucilla larva 48 hrs (Lucilla larva; 1 ppm)
4"-O-glucosyl, 27-OH -22,23 dihydro B1a isomer A [4"-O-glucosyl, 27-OH-22,23 dihydro B1a isomer A] | SLA (35-60% effective) | A (85-100% effective) | A (85-100% effective) | MA (60-85% effective) | A (85-100% effective) | A (85-100% effective) | A (85-100% effective) | A (85-100% effective) | A (85-100% effective) |  |  |  |  |  |  |  |  |  |  | 
4"-O-glucosyl, 27-OH B1a [4"-O-glucosyl, 27-OH B1a isomer B] | I | A (85-100% effective) | A (85-100% effective) | I | A (85-100% effective) | A (85-100% effective) | A (85-100% effective) | A (85-100% effective) | A (85-100% effective) |  |  |  |  |  |  |  |  |  |  | 
4"-O-glucosyl, 27-OH-22,23 dihydro B 1 a isomer B [4"-O-glucosyl, 27-OH-22,23 dihydro B1a isomer B] | SLA (35-60% effective) | MA (60-85% effective) | A (85-100% effective) | I | MA (60-85% effective) | A (85-100% effective) | A (85-100% effective) | A (85-100% effective) | A (85-100% effective) |  |  |  |  |  |  |  |  |  |  | 
CC1=C[C@H]2C(=O)O[C@H]3C[C@@H](C/C=C(\C)[C@@H](O)[C@@H](C)/C=C/C=C4\CO[C@H]([C@@H]1O)[C@@]42O)O[C@@]1(CC[C@H](C)[C@@H]([C@@H](C)C(C)O)O1)C3 (single isomer, unassigned) [27-OH-22,23 dihydro B1a aglycone isomer A, 27-hydroxy ivermectin aglycone] |  |  |  |  |  |  |  |  |  | I | I | I |  |  |  |  |  |  |  | 
CC1=C[C@H]2C(=O)O[C@H]3C[C@@H](C/C=C(\C)[C@@H](O)[C@@H](C)/C=C/C=C4\CO[C@H]([C@@H]1O)[C@@]42O)O[C@@]1(CC[C@H](C)[C@@H]([C@@H](C)C(C)O)O1)C3 (single isomer, unassigned) [27-OH-22,23 dihydro B1a aglycone isomer B, 27-hydroxy ivermectin aglycone] |  |  |  |  |  |  |  |  |  | I | I | I |  |  |  |  |  |  |  | 
CO[C@H]1C[C@H](O[C@H]2[C@H](C)O[C@@H](O[C@@H]3/C(C)=C/C[C@@H]4C[C@@H](C[C@]5(CC[C@H](C)[C@@H]([C@@H](C)C(C)O)O5)O4)OC(=O)[C@@H]4C=C(C)[C@@H](O)[C@H]5OC/C(=C\C=C\[C@@H]3C)[C@]54O)C[C@@H]2OC)O[C@@H](C)[C@@H]1O (single isomer, unassigned) [27-OH-22,23 dihydro B1a isomer A, 27-OH 22,23 dihydroavermectin B la] | A (85-100% effective) | A (85-100% effective) | A (85-100% effective) | A (85-100% effective) | A (85-100% effective) | A (85-100% effective) | I | A (85-100% effective) | A (85-100% effective) |  |  |  | I | I | I |  |  |  |  | 
CO[C@H]1C[C@H](O[C@H]2[C@H](C)O[C@@H](O[C@@H]3/C(C)=C/C[C@@H]4C[C@@H](C[C@]5(CC[C@H](C)[C@@H]([C@@H](C)C(C)O)O5)O4)OC(=O)[C@@H]4C=C(C)[C@@H](O)[C@H]5OC/C(=C\C=C\[C@@H]3C)[C@]54O)C[C@@H]2OC)O[C@@H](C)[C@@H]1O (single isomer, unassigned) [27-OH-22,23 dihydro B1a isomer B, 27-OH 22,23 dihydroavermectin B la] | I | A (85-100% effective) | A (85-100% effective) | MA (60-85% effective) | A (85-100% effective) | A (85-100% effective) | I | I | I |  |  |  | I | I | I | I | I | I | I | I
CO[C@H]1C[C@H](O[C@H]2[C@H](C)O[C@@H](O[C@@H]3/C(C)=C/C[C@@H]4C[C@@H](C[C@]5(C=C[C@H](C)[C@@H]([C@@H](C)C(C)O)O5)O4)OC(=O)[C@@H]4C=C(C)[C@@H](O)[C@H]5OC/C(=C\C=C\[C@@H]3C)[C@]54O)C[C@@H]2OC)O[C@@H](C)[C@@H]1O (single isomer, unassigned) [27-OHB1a isomer B, 27-OHB1a] | A (85-100% effective) | A (85-100% effective) | A (85-100% effective) | A (85-100% effective) | A (85-100% effective) | A (85-100% effective) |  |  | SLA (35-60% effective) |  |  |  |  |  |  |  |  |  |  | 
CC[C@H](C)[C@H]1O[C@]2(CC[C@@H]1C)C[C@@H]1C[C@@H](C/C=C(\C)[C@@H](O[C@H]3C[C@H](OC)[C@@H](O[C@H]4C[C@H](OC)[C@@H](O)[C@H](C)O4)[C@H](C)O3)[C@@H](C)/C=C/C=C3\CO[C@@H]4[C@H](O)C(C)=C[C@@H](C(=O)O1)[C@]34O)O2 [22,23 dihydro 8 B1a, 22,23 dihydro B1a, reference compound] | A (85-100% effective) | A (85-100% effective) | A (85-100% effective) | A (85-100% effective) | A (85-100% effective) | A (85-100% effective) | I | A (85-100% effective) | A (85-100% effective) |  |  |  |  |  |  |  |  |  |  | 
CC[C@H](C)[C@H]1O[C@]2(C=C[C@@H]1C)C[C@@H]1C[C@@H](C/C=C(\C)[C@@H](O[C@H]3C[C@H](OC)[C@@H](O[C@H]4C[C@H](OC)[C@@H](O)[C@H](C)O4)[C@H](C)O3)[C@@H](C)/C=C/C=C3\CO[C@@H]4[C@H](O)C(C)=C[C@@H](C(=O)O1)[C@]34O)O2 [B1a, avermectin B1a, reference compound] | A (85-100% effective) | A (85-100% effective) | A (85-100% effective) | A (85-100% effective) | A (85-100% effective) | A (85-100% effective) | SLA (35-60% effective) | A (85-100% effective) | A (85-100% effective) |  |  |  |  |  |  |  |  |  |  | 
